Laboratory results: BindingDB's records for doi:10.7270/Q2KH0KWR (Burnham Center For Chemical Genomics, 2012)

Biological target: T1, Tyrosine-protein phosphatase non-receptor type 5 (Homo sapiens, UniProt P54829)
T1 sequence (P54829 whole entry): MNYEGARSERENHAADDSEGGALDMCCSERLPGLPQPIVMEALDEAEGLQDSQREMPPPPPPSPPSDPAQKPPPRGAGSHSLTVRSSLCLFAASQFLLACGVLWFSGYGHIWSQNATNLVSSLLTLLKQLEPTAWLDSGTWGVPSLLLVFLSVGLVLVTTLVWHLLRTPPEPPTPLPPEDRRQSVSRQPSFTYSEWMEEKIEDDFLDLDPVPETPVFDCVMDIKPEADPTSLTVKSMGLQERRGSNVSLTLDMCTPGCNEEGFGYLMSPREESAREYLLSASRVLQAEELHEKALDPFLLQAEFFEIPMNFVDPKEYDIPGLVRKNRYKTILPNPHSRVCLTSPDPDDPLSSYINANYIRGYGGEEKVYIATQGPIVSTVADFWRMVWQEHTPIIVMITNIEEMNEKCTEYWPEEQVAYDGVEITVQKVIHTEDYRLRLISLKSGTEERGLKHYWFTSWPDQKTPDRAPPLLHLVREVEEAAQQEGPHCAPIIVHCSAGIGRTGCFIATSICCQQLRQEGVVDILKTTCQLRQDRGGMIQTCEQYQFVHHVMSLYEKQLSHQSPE
Assay: STEP phosphatase inhibitor potency, dose response, orthogonal assay for STEP inhibitor project, biochemical, colorimetric absorbance (AID 624207)

[1] = inactive by the depositor's call

IC50 [1] | IC50 | SMILES
23.6 µM | – | O=C(COc1ccc(/C=N/NC(=O)c2ccccc2O)cc1)Nc1ccccc1 [N-[(E)-[4-(2-anilino-2-oxoethoxy)phenyl]methylideneamino]-2-hydroxybenzamide]
– | > 80 µM | O=C(COc1ccc([CH+][N-]NC(=O)c2ccncc2)cc1)Nc1ccc([N+](=O)[O-])cc1 [N-[(E)-[4-[2-[(4-nitrophenyl)amino]-2-oxidanylidene-ethoxy]phenyl]methylideneamino]pyridine-4-carboxamide]
– | > 80 µM | O=C(N/N=C/c1ccoc1)c1cc(O)cc(O)c1 [N-[(E)-furan-3-ylmethylideneamino]-3,5-dihydroxybenzamide]
– | > 80 µM | Cc1cc(C(=O)NN=Cc2ccc(-c3ccc([N+](=O)[O-])cc3Cl)o2)[nH]n1 [N-[[5-(2-chloro-4-nitrophenyl)furan-2-yl]methylideneamino]-5-methyl-1H-pyrazole-3-carboxamide]
– | > 80 µM | O=S(=O)(Nc1ccccc1)c1cccc2nsnc12 [N-phenyl-2,1,3-benzothiadiazole-4-sulfonamide]
– | > 80 µM | COc1ccc(OC)c(-n2c(O)c3o[nH]c(-c4ccccc4Cl)c-3c2=O)c1 [SMR000046218]
39.3 µM | – | CCN1CCN(C(=S)c2ccc(Cl)c(Cl)c2)CC1 [SMR000143195]
32.8 µM | – | O=C(O)CCC(/N=N/c1ccc(S(=O)(=O)N2CCCC2)cc1[N+](=O)[O-])c1cccs1 (centres undefined) [SMR000151450]
– | > 80 µM | O=Cc1cn(-c2ccccc2)nc1-c1cc2cc(O)ccc2oc1=O [SMR000152596]
63.9 µM | – | CCN1CCN(C(=S)c2ccc(Br)cc2)CC1 [SMR000198085]
– | > 80 µM | CCN(c1ccccc1)S(=O)(=O)c1cc(C(=O)OC(C)C(=O)Nc2ccc3c(c2)OCCO3)ccc1C (centres undefined) [SMR000242949]
– | > 80 µM | COc1ccccc1Nc1ccc([N+](=O)[O-])cc1N [SMR000260154]
77 µM | – | N=C(NCc1ccc2c(c1)OCO2)NC(=O)c1ccccc1 [SMR000293067]
– | > 80 µM | O=C(NC1CCCCCC1)C(=S)NC1CCCCC1 [SMR000296231]
– | > 80 µM | N=C1S/C(=C\c2ccc(O)cc2)C(=O)N1c1ccc(F)cc1 [SMR000298434]
27 µM | – | CCOC(=O)N1CCC(N(CCN(C)C)C(=S)Nc2ccc(Oc3ccccc3)cc2)CC1 [SMR000311544]
– | > 80 µM | O=C(COc1ccc([N+](=O)[O-])cc1)Nc1nnc(-c2cccnc2)s1 [SMR000385697]

IC50 [1] | IC50 | SMILES
– | > 80 µM | Cc1ccc(NC(=O)CN2C(=O)S/C(=C\c3ccc(OCC(=O)O)c(Br)c3)C2=O)cc1 [SMR000477386]
44.7 µM | – | COc1cc(/C=N/NC(=O)c2ccccc2O)ccc1OCC(=O)Nc1ccccc1 [SMR000515267]
33.5 µM | – | COC(=O)c1ccccc1CSc1nsc(/C=C/N(C)C)c1C#N [SMR000549393]
– | > 80 µM | Cc1ccc(NC(=O)CCn2c(=S)oc3ccccc32)cc1F [SMR000564947]
– | > 80 µM | CCOC(=O)CC(NS(=O)(=O)c1ccc2ncc(C(=O)O)c(O)c2c1)c1ccc(OCC)c(OC)c1 (centres undefined) [SMR000621519]
22.4 µM | – | Cc1ccc(NC(=O)c2ccc3nc(N4CCOCC4)sc3c2)c(Cl)c1 [SMR000624920]
36.1 µM | – | Cc1c(C)c2ccc(OCC(=O)Nc3ccc(S(N)(=O)=O)cc3)c(C)c2oc1=O [SMR000652408]
38.4 µM | – | Cc1sc2nc(CSC(C)C(=O)Nc3ccc(Cl)cn3)nc(O)c2c1C (centres undefined) [SMR001268769]
– | 32.5 µM | O=C(NN=Cc1ccccc1O)NN=Cc1ccccc1O [SMR001556943]
– | > 80 µM | CC(=NNC(=S)N1CC2CCC(CC2)C1)c1cccc(C)n1 [SMR001565418]
– | > 80 µM | CCN(c1ccccc1)S(=O)(=O)c1cc(C(=O)OCC(=O)c2c(N)n(C)c(=O)n(C)c2=O)ccc1C [[2-(4-amino-1,3-dimethyl-2,6-dioxopyrimidin-5-yl)-2-oxoethyl] 3-[ethyl(phenyl)sulfamoyl]-4-methylbenzoate]
– | 13.6 µM | COc1ccc(CN=Nc2nc(O)c(CC(=O)O)s2)cc1OCc1ccc(Cl)cc1Cl [[2-({3-[(2,4-dichlorobenzyl)oxy]-4-methoxybenzylidene}hydrazono)-4-oxo-1,3-thiazolidin-5-yl]acetic acid]
– | > 80 µM | Cc1ccccc1N1CCN(C(=S)c2ccc(-c3cccc([N+](=O)[O-])c3)o2)CC1 [[4-(2-methylphenyl)-1-piperazinyl]-[5-(3-nitrophenyl)-2-furanyl]methanethione]
77.1 µM | – | CCOC(=O)N1CCC(N(CCN(C)C)C(=S)Nc2cc(Cl)ccc2C)CC1 [ethyl 4-[(5-chloranyl-2-methyl-phenyl)carbamothioyl-[2-(dimethylamino)ethyl]amino]piperidine-1-carboxylate]
44.3 µM | – | CCOC(=O)c1c(NC(=O)OC)sc(C(=O)N(CC)CC)c1C [ethyl 5-(diethylcarbamoyl)-2-(methoxycarbonylamino)-4-methylthiophene-3-carboxylate]
– | 73 µM | NS(=O)(=O)c1ccccc1 [sodium;phenylsulfonylazanide]
– | 5.83 µM | CC1=C(C(=O)OC(C)C)C(c2ccc(Cl)cc2)n2c(s/c(=C\c3ccc(OCC(=O)O)cc3)c2=O)=N1 (centres undefined) [{4-[(5-(4-chlorophenyl)-6-(isopropoxycarbonyl)-7-methyl-3-oxo-5H-[1,3]thiazolo[3,2-a]pyrimidin-2(3H)-ylidene)methyl]phenoxy}acetic acid]
